Assay results published in US6787674B1, “(+)-1-Bisabolone isolated from cymbopogon flexuosus and antibacterial activity thereof” (Council of Scientific and Industrial Research, priority 2003, dated 2004).

Tests used:
Format in all cases: cell-based
other test bacteria = assay: In vitro antibacterial activity, other test bacteria
Description: (§1) The pure bacterial cultures of test bacteria were procured from laboratory culture collection maintained at RRL, Jammu. The bacterial organisms were subcultured on L B. broth. Following filter paper disc agar diffusion method (Maruzella, J. C. and Henry, P. A. 1958, the antifungal activity of perfume oils. J. Amer. Pharm. Ass., 47:471-476).
(§2) 20 ml of sterilized medium was taken in each petriplate. After the agar has hardened, 2 ml of 24 hrs. broth culture of organism was added to each petriplate and mixed thoroughly by rotatory motion of the plate and allowed to set. The sterilized Whatman filter paper No. 1 discs (4 mm diameter) were thoroughly moistened with 5 μl of (+)-1-bisabolone of formula 1 in dilution of 1:50, 1:100 in the solvent Tween-80 and placed on the seeded agar plates. The standard antibiotic disc of ampicillin was placed on surface of each seeded petriplate as standard for anti-bacterial activity. Three each of seeded agar plates for each organism were incubated at 37° C. for 36 hrs. […] The zone of inhibition was measured with the help of a divider. The […] were performed in triplicate and average zones of inhibition for anti-bacterial activity are recorded in Table-2.

Staphylococcus aureus = assay: Filter paper disc agar diffusion, antibacterial activity
Description: as §1, §2

Bacillus cereus = assay: as above
Description: as §1, §2

Bacillus subtilis = assay: as above
Description: as §1, §2

gram positive bacteria = assay: In vitro antibacterial activity compared with standard ampicillin
Description: as §1, §2

[1] = Pure 1, 4 mm disc, 37° C., 36 hrs
[2] = dilution 1:50 in Tween-80, 5 μl on 4 mm disc, 37° C., 36 hrs
[3] = dilution 1:100 in Tween-80, 5 μl on 4 mm disc, 37° C., 36 hrs
[4] = control (standard antibiotic disc of ampicillin)

`CC(C)=CCC[C@H](C)[C@H]1CCC(C)=CC1=O` [(+)-1-bisabolone] was tested, and the “in vitro antibacterial activity (in words)” value (other test bacteria) was “good to moderate activity”, the “in vitro antibacterial activity (in words)” value (Staphylococcus aureus) was “strongly active” and the “Diameter (mm) of zone inhibition” value (Staphylococcus aureus; [1]) was 24 mm. For the same molecule, the “Diameter (mm) of zone inhibition” value (Staphylococcus aureus; [2]) was 19 mm, the “Diameter (mm) of zone inhibition” value (Staphylococcus aureus; [3]) was 13 mm and the “in vitro antibacterial activity (in words)” value (Bacillus cereus) was “strongly active”. The “Diameter (mm) of zone inhibition” value (Bacillus cereus; [1]) was 21 mm, the “Diameter (mm) of zone inhibition” value (Bacillus cereus; [2]) was 13 mm and the “Diameter (mm) of zone inhibition” value (Bacillus cereus; [3]) was 9 mm. For the same molecule, the “in vitro antibacterial activity (in words)” value (Bacillus subtilis) was “strongly active”, the “Diameter (mm) of zone inhibition” value (Bacillus subtilis; [1]) was 19 mm and the “Diameter (mm) of zone inhibition” value (Bacillus subtilis; [2]) was 15 mm. For the same molecule, the “Diameter (mm) of zone inhibition” value (Bacillus subtilis; [3]) was 13 mm and the “activity compared with the standard ampicillin” value (gram positive bacteria) was “far better activity”.
With `CC1(C)S[C@@H]2[C@H](NC(=O)[C@H](N)c3ccccc3)C(=O)N2[C@H]1C(=O)O` [control, ampicillin, reference compound] the “Diameter (mm) of zone inhibition” value (Staphylococcus aureus; [4]) was 6 mm, the “Diameter (mm) of zone inhibition” value (Bacillus cereus; [4]) was 4 mm and the “Diameter (mm) of zone inhibition” value (Bacillus subtilis; [4]) was 5 mm.
